Results on one molecule are retold here after patent US11225459B2, “Substituted bisphenylalkylurea compounds and methods” (TEXAS TECH UNIVERSITY SYSTEM, priority 2017, dated 2022).

The term pKi denotes the negative decadic logarithm of the Ki, by convention in mol/L.

Experiment [1] has as its target Dopamine Transporter (DAT) (Homo sapiens, UniProt Q01959). Kind of experiment: DAT inhibition (Ki), in vitro. The class given is binding. The following applies: FIG. 4. The source says: FIG. 4 depicts a graph showing DAT inhibition (Ki) of compound of the present disclosure designated Formula I (AZ2-57).
In one embodiment, compound of the present disclosure Formula I (AZ2-57) is shown in in vitro studies to show DAT inhibition (see FIG. 4).

The target in a further experiment is H1 receptor (Homo sapiens, UniProt P35367). Put plainly: H1 R inhibition (Ki). The following applies: FIG. 5. Type of experiment: binding. The source says: FIG. 5 depicts a graph showing H1 R inhibition (Ki) of compound of the present disclosure designated as Formula I (AZ2-57).
The next experiment concerns the target H2 receptor (Homo sapiens, UniProt P25021). Put plainly: H2 R inhibition (Ki). The class given is binding. To be noted: FIG. 6. The source says:
FIG. 6 depicts a graph showing H2 R inhibition (Ki) of compound of the present disclosure designated as Formula I (AZ2-57).

In the next experiment the test system is HUVEC cells. Kind of experiment: Ca2+ release assay (HUVEC cells). Type of experiment: cell-based. To be noted: FIG. 7. The source says: FIG. 7 depicts a graph showing Ca2+ release assay (HUVEC cells) of compound of the present disclosure designated as Formula I (AZ2-57).
Unlike many other DAT inhibitors on the market, our compound has very limited interaction with other GPCR receptors, reducing potential CNS-induced toxicity. It is thus an embodiment of the present disclosure to further show effect on microglia-induced immune response (chronic inflammation), dopamine surge in the presence of Formula I (AZ2-57).

pKi: −log10 of the molar value.

H1 receptor, sequence (P35367 whole entry): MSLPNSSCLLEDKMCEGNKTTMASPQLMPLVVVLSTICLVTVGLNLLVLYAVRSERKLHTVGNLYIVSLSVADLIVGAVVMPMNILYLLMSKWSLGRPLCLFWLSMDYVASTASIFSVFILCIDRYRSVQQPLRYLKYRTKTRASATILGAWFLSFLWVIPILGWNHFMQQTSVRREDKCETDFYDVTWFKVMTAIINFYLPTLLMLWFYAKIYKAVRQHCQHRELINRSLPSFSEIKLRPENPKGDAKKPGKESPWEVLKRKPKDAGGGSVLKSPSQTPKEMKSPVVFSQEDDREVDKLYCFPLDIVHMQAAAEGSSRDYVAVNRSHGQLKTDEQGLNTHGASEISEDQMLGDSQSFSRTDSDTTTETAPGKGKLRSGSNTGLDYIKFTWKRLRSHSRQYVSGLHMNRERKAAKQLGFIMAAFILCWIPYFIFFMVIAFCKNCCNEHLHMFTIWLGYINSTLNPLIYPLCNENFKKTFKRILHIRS
H2 receptor, sequence (P25021 whole entry): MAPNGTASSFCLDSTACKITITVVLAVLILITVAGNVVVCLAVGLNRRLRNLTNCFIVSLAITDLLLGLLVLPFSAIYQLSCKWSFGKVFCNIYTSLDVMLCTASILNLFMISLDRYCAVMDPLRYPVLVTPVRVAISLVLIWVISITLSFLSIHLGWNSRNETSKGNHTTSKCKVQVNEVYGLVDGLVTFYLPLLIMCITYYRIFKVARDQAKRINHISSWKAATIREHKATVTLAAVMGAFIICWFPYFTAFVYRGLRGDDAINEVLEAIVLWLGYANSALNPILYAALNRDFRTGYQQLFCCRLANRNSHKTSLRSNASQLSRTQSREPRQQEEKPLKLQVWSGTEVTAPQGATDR
Dopamine Transporter (DAT), sequence (Q01959 whole entry, species assumed): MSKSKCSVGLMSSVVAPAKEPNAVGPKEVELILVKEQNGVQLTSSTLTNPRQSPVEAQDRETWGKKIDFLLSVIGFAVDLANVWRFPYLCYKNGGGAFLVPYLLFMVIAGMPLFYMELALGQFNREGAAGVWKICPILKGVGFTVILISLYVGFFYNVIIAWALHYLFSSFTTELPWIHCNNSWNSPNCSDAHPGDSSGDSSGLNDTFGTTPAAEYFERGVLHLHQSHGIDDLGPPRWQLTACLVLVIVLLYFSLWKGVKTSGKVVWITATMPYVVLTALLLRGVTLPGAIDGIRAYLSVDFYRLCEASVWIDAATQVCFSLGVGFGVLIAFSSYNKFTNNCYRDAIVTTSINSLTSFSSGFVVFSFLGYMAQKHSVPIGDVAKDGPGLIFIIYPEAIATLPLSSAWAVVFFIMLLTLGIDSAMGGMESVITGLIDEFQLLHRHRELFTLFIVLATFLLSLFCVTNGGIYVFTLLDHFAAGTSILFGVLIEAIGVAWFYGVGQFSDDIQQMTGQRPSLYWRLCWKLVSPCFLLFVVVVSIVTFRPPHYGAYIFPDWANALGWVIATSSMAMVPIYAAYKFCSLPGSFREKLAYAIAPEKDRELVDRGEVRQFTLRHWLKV

Regarding `O=C(NCCCCC(c1ccc(F)cc1)c1ccc(F)cc1)Nc1ccc(Cl)cc1` [AZ2-57, 1-(5,5-bis(4-fluorophenyl)pentyl)-3-(4-chlorophenyl)urea], the pKi in experiment [1] is 8.28; at H1 receptor, 7.49; on H2 receptor, 5.76. Further, the “inhibition of H1 receptor” value on H1 receptor was 65.4%. In addition, the “inhibition of H2 receptor” value against H2 receptor came to 54%. For the same molecule, the “Ca2+ release” value with HUVEC cells is on record as “effectively manipulated”.
